What was measured:
Experiment in all cases: relative viability (nuclei count vs DMSO), 5 days (fraction); higher = more cells survive
FH535 + Alpelisib = compound: CC1=C(C=CC(=C1)[N+](=O)[O-])NS(=O)(=O)C2=C(C=CC(=C2)Cl)Cl [FH535] + Cc1nc(NC(=O)N2CCC[C@H]2C(N)=O)sc1-c1ccnc(C(C)(C)C(F)(F)F)c1 [Alpelisib] (partner 2 µM)
Outline: (§1)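 One day after seeding in 1536-well plates, lung cancer cell lines were dosed by pin tool. Dosing was either single-drug or a fixed anchor-drug dose plus five library-drug doses (not always all listed) in √10 steps. After 5 days, nuclei were stained in one fix-and-stain step and counted on 4× images, and relative viability is the nuclei count of treated wells over that of vehicle wells, given as the median of duplicate plates.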

FH535 + Phenformin = compound: CC1=C(C=CC(=C1)[N+](=O)[O-])NS(=O)(=O)C2=C(C=CC(=C2)Cl)Cl [FH535] + N=C(N)NC(=N)NCCc1ccccc1 [Phenformin] (partner 250 µM)
Outline: as §1

FH535 + Dasatinib = compound: CC1=C(C=CC(=C1)[N+](=O)[O-])NS(=O)(=O)C2=C(C=CC(=C2)Cl)Cl [FH535] + Cc1nc(Nc2ncc(C(=O)Nc3c(C)cccc3Cl)s2)cc(N2CCN(CCO)CC2)n1 [Dasatinib] (partner 0.075 µM)
Outline: as §1

FH535 + AZD7762 = compound: CC1=C(C=CC(=C1)[N+](=O)[O-])NS(=O)(=O)C2=C(C=CC(=C2)Cl)Cl [FH535] + NC(=O)Nc1cc(-c2cccc(F)c2)sc1C(=O)N[C@H]1CCCNC1 [AZD7762] (partner 0.2 µM)
Outline: as §1

FH535 + Lapatinib = compound: CC1=C(C=CC(=C1)[N+](=O)[O-])NS(=O)(=O)C2=C(C=CC(=C2)Cl)Cl [FH535] + CS(=O)(=O)CCNCc1ccc(-c2ccc3ncnc(Nc4ccc(OCc5cccc(F)c5)c(Cl)c4)c3c2)o1 [Lapatinib] (partner 2 µM)
Outline: as §1

| Cell Line | relative viability (FH535 + Alpelisib; first compound 0.1265 µM) | relative viability (FH535 + Alpelisib; first compound 0.4 µM) | relative viability (FH535 + Alpelisib; first compound 1.265 µM) | relative viability (FH535 + Phenformin; first compound 0.04 µM) | relative viability (FH535 + Phenformin; first compound 0.1265 µM) | relative viability (FH535 + Phenformin; first compound 0.4 µM) | relative viability (FH535 + Phenformin; first compound 1.265 µM) | relative viability (FH535 + Dasatinib; first compound 0.04 µM) | relative viability (FH535 + Dasatinib; first compound 0.1265 µM) | relative viability (FH535 + Dasatinib; first compound 0.4 µM) | relative viability (FH535 + Dasatinib; first compound 1.265 µM) | relative viability (FH535 + AZD7762; first compound 0.04 µM) | relative viability (FH535 + AZD7762; first compound 0.1265 µM) | relative viability (FH535 + AZD7762; first compound 0.4 µM) | relative viability (FH535 + AZD7762; first compound 1.265 µM) | relative viability (FH535 + Lapatinib; first compound 0.1265 µM) | relative viability (FH535 + Lapatinib; first compound 0.4 µM) | relative viability (FH535 + Lapatinib; first compound 1.265 µM) | relative viability (FH535 + Alpelisib; first compound 0.04 µM) | relative viability (FH535 + Lapatinib; first compound 0.04 µM) |
| --- | --- | --- | --- | --- | --- | --- | --- | --- | --- | --- | --- | --- | --- | --- | --- | --- | --- | --- | --- | --- |
| LCLC-97TM1 | 0.225 | 0.224 | 0.181 | 0.409 | 0.37 | 0.334 | 0.313 | 0.726 | 0.797 | 0.811 | 0.77 | 0.127 | 0.276 | 0.278 | 0.227 | 0.766 | 0.837 | 0.833 |  |  |
| LK-2 | 1.06 | 1.09 | 1.01 | 0.35 | 0.521 | 0.495 | 0.211 | 0.308 | 0.248 | 0.294 | 0.327 | 0.425 | 0.459 | 0.323 | 0.39 | 0.854 | 0.91 | 0.775 | 0.915 | 0.982 |
| LOU-NH91 | 0.793 | 0.679 | 0.409 | 0.554 | 0.471 | 0.424 | 0.392 | 0.573 | 0.613 | 0.388 | 0.267 | 0.767 | 0.779 | 0.608 | 0.428 | 0.667 | 0.6 | 0.408 | 0.714 | 0.726 |
| LU99A | 0.498 | 0.534 | 0.522 | 0.55 | 0.856 | 0.764 | 0.729 | 0.435 | 0.439 | 0.468 | 0.507 | 0.205 | 0.353 | 0.354 | 0.328 | 1.05 | 0.969 | 0.866 | 0.457 | 0.739 |
| LXF-289 | 0.98 | 0.91 | 0.794 | 0.474 | 0.486 | 0.472 | 0.384 | 0.205 | 0.262 | 0.225 | 0.212 | 1.05 | 1.1 | 1.03 | 0.873 | 0.878 | 0.886 | 0.801 | 0.958 | 0.88 |
| NCI-H23 | 0.761 | 0.636 | 0.631 | 0.786 | 0.739 | 0.655 | 0.555 | 0.769 | 0.529 | 0.61 | 0.731 | 0.22 | 0.391 | 0.275 | 0.307 | 1.17 | 0.936 | 0.913 |  |  |
| NCI-H322M | 0.783 | 0.83 | 0.761 | 0.813 | 0.844 | 0.707 | 0.601 | 0.255 | 0.268 | 0.238 | 0.219 | 0.522 | 0.549 | 0.515 | 0.633 | 0.554 | 0.555 | 0.595 | 0.722 | 0.504 |
| NCI-H358 | 0.929 | 0.84 | 0.643 | 0.256 | 0.327 | 0.265 | 0.153 | 0.141 | 0.15 | 0.159 | 0.143 | 0.495 | 0.571 | 0.529 | 0.252 | 0.422 | 0.441 | 0.388 | 0.919 | 0.406 |
| NCI-H460 | 0.601 | 0.51 | 0.449 | 0.517 | 0.535 | 0.399 | 0.244 | 0.356 | 0.546 | 0.452 | 0.337 | 0.616 | 0.615 | 0.603 | 0.337 | 1.08 | 1 | 0.575 | 0.388 | 0.992 |
| NCI-H596 | 0.487 | 0.481 | 0.487 | 0.794 | 0.623 | 0.614 | 0.69 | 0.673 | 0.574 | 0.604 | 0.55 | 1.04 | 1.18 | 0.933 | 1.05 | 1.03 | 0.985 | 0.94 | 0.527 | 1.06 |
| NCI-H647 | 1.41 | 1.14 | 0.935 | 0.524 | 0.508 | 0.431 | 0.42 | 0.183 | 0.193 | 0.129 | 0.152 | 0.557 | 0.519 | 0.322 | 0.418 | 1.08 | 0.914 | 0.864 | 1.18 | 0.971 |
| NCI-H650 | 1.06 | 1.12 | 0.774 | 0.411 | 0.417 | 0.388 | 0.289 | 0.4 | 0.462 | 0.429 | 0.309 | 0.877 | 1.03 | 1.18 | 0.67 | 0.886 | 0.703 | 0.68 | 0.975 | 0.718 |
| NCI-H727 | 0.523 | 0.518 | 0.533 | 0.56 | 0.509 | 0.363 | 0.305 | 0.405 | 0.434 | 0.364 | 0.402 | 0.409 | 0.59 | 0.595 | 0.59 | 0.628 | 0.727 | 0.665 | 0.542 | 0.85 |
| NCI-H838 | 1.06 | 0.962 | 0.765 | 0.512 | 0.722 | 0.445 | 0.309 | 0.276 | 0.291 | 0.284 | 0.269 | 0.893 | 1 | 0.902 | 0.891 | 0.873 | 0.795 | 0.734 | 0.917 | 0.971 |
| NCI-H1355 | 0.87 | 0.818 | 0.401 | 0.425 | 0.42 | 0.353 | 0.269 | 0.723 | 0.692 | 0.57 | 0.605 | 0.688 | 0.843 | 0.727 | 0.76 | 1.01 | 0.933 | 0.883 | 0.786 | 0.92 |
| NCI-H1395 | 1.09 | 1.1 | 0.84 | 0.443 | 0.448 | 0.396 | 0.348 | 0.361 | 0.402 | 0.413 | 0.344 | 0.381 | 0.426 | 0.368 | 0.393 | 0.968 | 0.964 | 0.555 | 0.847 | 0.768 |
| NCI-H1437 | 0.968 | 0.897 | 0.468 | 0.289 | 0.309 | 0.29 | 0.171 | 0.372 | 0.405 | 0.184 | 0.109 | 1.11 | 1.13 | 1.01 | 0.502 | 0.534 | 0.631 | 0.349 | 0.982 | 0.731 |
| NCI-H1651 | 1.07 | 1.04 | 0.69 | 0.318 | 0.319 | 0.221 | 0.188 | 0.397 | 0.419 | 0.284 | 0.201 | 0.368 | 0.511 | 0.502 | 0.466 | 0.729 | 0.731 | 0.669 | 1 | 0.815 |
| NCI-H1666 | 0.956 | 1.01 | 0.693 | 0.582 | 0.513 | 0.476 | 0.373 | 0.833 | 0.85 | 0.716 | 0.64 | 0.727 | 0.899 | 0.772 | 0.747 | 0.623 | 0.634 | 0.421 | 1.04 | 0.601 |
| NCI-H1734 | 0.715 | 0.693 | 0.617 |  | 0.394 | 0.373 | 0.269 |  | 0.507 | 0.476 | 0.431 | 0.562 | 0.603 | 0.563 | 0.554 | 1.14 | 0.955 | 0.935 | 0.651 | 1.01 |
| NCI-H1755 | 0.897 | 0.853 | 0.867 | 0.539 | 0.627 | 0.558 | 0.494 | 0.353 | 0.46 | 0.404 | 0.422 | 0.418 | 0.439 | 0.475 | 0.444 | 0.985 | 0.944 | 0.949 | 0.941 | 1.04 |
| NCI-H1792 | 0.73 | 0.664 | 0.53 | 0.216 | 0.358 | 0.267 | 0.235 | 0.661 | 0.761 | 0.701 | 0.543 | 0.646 | 0.79 | 0.539 | 0.577 | 0.948 | 0.866 | 0.673 | 0.64 | 0.837 |
| NCI-H1793 | 0.721 | 0.618 | 0.541 | 0.39 | 0.256 | 0.278 | 0.211 | 0.321 | 0.342 | 0.296 | 0.339 | 0.43 | 0.631 | 0.418 | 0.483 | 0.575 | 0.641 | 0.696 | 0.597 | 0.525 |
| NCI-H1915 | 1.07 | 1.05 | 0.738 | 0.339 | 0.385 | 0.309 | 0.292 | 0.292 | 0.306 | 0.287 | 0.3 | 0.604 | 0.77 | 0.713 | 0.669 | 0.826 | 0.852 | 0.795 | 1 | 0.867 |
| NCI-H1944 | 0.858 | 0.848 | 0.837 | 0.17 | 0.205 | 0.161 | 0.109 | 0.179 | 0.209 | 0.222 | 0.204 | 0.316 | 0.527 | 0.588 | 0.48 | 0.777 | 0.668 | 0.754 |  |  |
| NCI-H1975 | 0.682 | 0.607 | 0.487 | 0.384 | 0.402 | 0.35 | 0.256 | 0.304 | 0.341 | 0.263 | 0.294 | 0.638 | 0.793 | 0.591 | 0.554 | 0.748 | 0.715 | 0.73 | 0.614 | 0.863 |
| NCI-H1993 | 0.78 | 0.662 | 0.596 | 0.415 | 0.495 | 0.533 | 0.524 | 0.526 | 0.597 | 0.474 | 0.427 | 0.927 | 0.704 | 0.626 | 0.532 | 0.781 | 0.729 | 0.714 | 0.629 | 0.676 |

Source: the supplement of paper PMC10307832
